Earlier results, collected in patent US20060046268A1, “Diagnosis of anemia and optimizing treatment for heart repair” (Australian Stem Cell Centre Ltd., priority 2004, published 2006).

Test system: renal transplant patients
Settings: reversed upon ceasing administration of the drug, Vlahakos et al., Am J Kidney Dis 17:199-205

For CCOC(=O)[C@H](CCc1ccccc1)N[C@@H](C)C(=O)N1CCC[C@H]1C(=O)O [Enalapril], the “anemia (impact on function of the hematopoietic system)” value is given as “reversible anemia”.
